How the values were obtained:
Type in all cases: biochemical
PI3Kγ (p110γ) = PI3Kγ (p110γ) (Homo sapiens (Human), UniProt P48736); test: cell-free PI3K HTRF assay, PI3Kγ; details: ratio of IC50 against PI3Kγ related to PI3Kδ; 10-dose, 3-fold serial dilution starting at 10 μM
Description: (§1) Exemplary compounds of the invention were tested for inhibitory activity and potency against class I PI3Ks (p110α/p85α, p110β/p85α, p110δ/p85α and p110γ) using a cell-free based PI3K HTRF assay. This assay was used to detect the formation of the product 3,4,5-inositol triphosphate molecule (PIP3) by displacement of biotin-PIP3 from an energy transfer complex consisting of Europium labeled anti-GST monoclonal antibody, a GST-tagged pleckstrin homology (PH) domain, biotinylated PIP3 and Streptavidin-Allophycocyanin (APC). Excitation of Europium in the complex results in an energy transfer to the APC and a fluorescent emission at 665 nm. The PIP3 product formed by human PI 3-Kinase activity displaces biotin-PIP3 from the complex resulting in a loss of energy transfer and thus a decrease in signal.
(§2) Human class I PI3K isoforms were co-expressed in a Baculovirus infected cell expression system. The PI3K isoforms were assayed in the presence of HEPES (50 mM, pH 7.0), NaN3 (0.02%), BSA (0.01%), orthovanadate (0.1 mM), and DMSO (1%). The exemplary compounds dissolved in DMSO were delivered into the kinase reaction mixture by Acoustic technology (Echo550; nanolitter range), and were pre-incubated for 10 min at room temperature before adding ATP (10 μM) to initiate the reaction. After 30 min at 30° C., the reactions were quenched with a stop solution, incubated overnight with a detection mixture before measuring HTRF (Ex: 320 nm; Em: 615/665 nm). The emission ratio is converted into μM PIP3 production based on PIP3 standard curves, and the nonlinear regression to obtain the standard curve and IC50 values are performed using Graphpad Prism software.
(§3) The assays were performed at Reaction Biology Corporation, One Great Valley Parkway, Suite 2, Malvern, Pa. 19355, USA.
(§4) Exemplary compounds of the invention selected were further tested their inhibitory activity or potency against PI3Kα, PI3Kβ, and PI3Kγ in 10-dose IC50 mode with 3-fold serial dilution starting at 10 μM. […] Table 5 below illustrates the selectivity of the exemplary compounds using the ratios of the IC50 values of the compounds against PI3Kα, PI3Kβ, and PI3Kγ related to PI3Kδ. […] Such unexpected selectivity against PI3Kδ and/or PI3Kγ is attributed to the unusual overall shape of the molecules of formula (I) and (II), and the optimal selection of R1, R2, R3, R4, X, and Y defined in formula (I) and (II) in order to bind favorably in the ATP-binding pocket of PI3Kδ and/or PI3Kγ versus other class I isozymes.

PI3Kα (p110α/p85α) = PI3Kα (p110α/p85α) (Homo sapiens (Human), UniProt P42336); test: cell-free PI3K HTRF assay, PI3Kα; details: ratio of IC50 against PI3Kα related to PI3Kδ; 10-dose, 3-fold serial dilution starting at 10 μM
Description: as §1, §2, §3, §4

PI3Kβ (p110β/p85α) = PI3Kβ (p110β/p85α) (Homo sapiens (Human), UniProt P42338); test: cell-free PI3K HTRF assay, PI3Kβ; details: ratio of IC50 against PI3Kβ related to PI3Kδ; 10-dose, 3-fold serial dilution starting at 10 μM
Description: as §1, §2, §3, §4

PI3Kδ (p110δ/p85α) = PI3Kδ (p110δ/p85α) (Homo sapiens (Human), UniProt O00329); test: cell-free PI3K HTRF assay, PI3Kδ; details: 10-dose IC50 mode, 3-fold serial dilution starting at 1 μM; ATP 10 μM; read-out: IC50 value for the inhibition of PI3Kδ
PI3Kδ (p110δ/p85α), sequence (O00329 whole entry): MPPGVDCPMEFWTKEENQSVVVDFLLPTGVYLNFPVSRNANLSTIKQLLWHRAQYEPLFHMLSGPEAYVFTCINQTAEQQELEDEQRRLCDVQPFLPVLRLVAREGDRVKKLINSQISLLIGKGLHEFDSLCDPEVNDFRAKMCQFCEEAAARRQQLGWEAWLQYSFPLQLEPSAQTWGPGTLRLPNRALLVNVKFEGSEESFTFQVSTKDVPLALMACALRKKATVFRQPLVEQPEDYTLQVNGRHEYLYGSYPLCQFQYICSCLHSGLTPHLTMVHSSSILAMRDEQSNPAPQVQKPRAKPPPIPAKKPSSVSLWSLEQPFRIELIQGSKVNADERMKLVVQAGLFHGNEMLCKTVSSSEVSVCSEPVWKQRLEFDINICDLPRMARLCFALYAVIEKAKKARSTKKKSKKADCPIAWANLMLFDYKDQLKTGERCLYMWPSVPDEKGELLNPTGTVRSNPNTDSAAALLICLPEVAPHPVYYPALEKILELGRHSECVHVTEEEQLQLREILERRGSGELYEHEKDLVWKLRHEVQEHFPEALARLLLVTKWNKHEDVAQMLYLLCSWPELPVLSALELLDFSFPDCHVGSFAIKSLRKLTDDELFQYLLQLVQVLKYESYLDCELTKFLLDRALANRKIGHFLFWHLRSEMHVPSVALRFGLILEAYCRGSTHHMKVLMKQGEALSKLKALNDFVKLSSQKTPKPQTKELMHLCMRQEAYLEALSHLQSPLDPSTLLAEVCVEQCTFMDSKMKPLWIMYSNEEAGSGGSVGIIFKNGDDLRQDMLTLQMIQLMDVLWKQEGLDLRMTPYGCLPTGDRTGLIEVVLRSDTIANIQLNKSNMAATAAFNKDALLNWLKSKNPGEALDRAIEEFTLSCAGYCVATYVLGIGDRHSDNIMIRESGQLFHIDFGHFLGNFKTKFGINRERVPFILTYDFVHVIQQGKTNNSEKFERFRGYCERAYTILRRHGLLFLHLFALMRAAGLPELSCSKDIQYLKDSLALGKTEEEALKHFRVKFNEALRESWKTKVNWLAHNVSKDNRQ
PI3Kδ (p110δ/p85α), sequence (P27986 whole entry partner): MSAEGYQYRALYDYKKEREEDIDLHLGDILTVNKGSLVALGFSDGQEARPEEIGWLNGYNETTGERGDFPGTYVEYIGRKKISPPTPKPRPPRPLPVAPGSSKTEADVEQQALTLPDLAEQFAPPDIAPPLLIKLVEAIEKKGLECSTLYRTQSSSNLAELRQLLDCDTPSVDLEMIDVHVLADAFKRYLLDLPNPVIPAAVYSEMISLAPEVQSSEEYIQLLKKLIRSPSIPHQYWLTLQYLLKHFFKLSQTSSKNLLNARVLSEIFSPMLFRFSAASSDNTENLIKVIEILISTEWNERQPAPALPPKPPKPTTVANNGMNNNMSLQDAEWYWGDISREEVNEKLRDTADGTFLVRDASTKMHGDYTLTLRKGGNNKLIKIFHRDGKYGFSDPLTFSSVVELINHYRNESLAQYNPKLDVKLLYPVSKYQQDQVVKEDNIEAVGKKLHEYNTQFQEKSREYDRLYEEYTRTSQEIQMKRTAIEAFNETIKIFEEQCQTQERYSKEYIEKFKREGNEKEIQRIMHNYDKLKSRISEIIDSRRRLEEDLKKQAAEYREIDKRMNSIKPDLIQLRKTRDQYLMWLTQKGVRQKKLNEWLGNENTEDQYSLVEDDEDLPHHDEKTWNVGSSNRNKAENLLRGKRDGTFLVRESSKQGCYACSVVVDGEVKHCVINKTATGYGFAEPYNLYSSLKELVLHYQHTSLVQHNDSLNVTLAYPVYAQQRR

PI3Kγ (p110γ), sequence (P48736 whole entry): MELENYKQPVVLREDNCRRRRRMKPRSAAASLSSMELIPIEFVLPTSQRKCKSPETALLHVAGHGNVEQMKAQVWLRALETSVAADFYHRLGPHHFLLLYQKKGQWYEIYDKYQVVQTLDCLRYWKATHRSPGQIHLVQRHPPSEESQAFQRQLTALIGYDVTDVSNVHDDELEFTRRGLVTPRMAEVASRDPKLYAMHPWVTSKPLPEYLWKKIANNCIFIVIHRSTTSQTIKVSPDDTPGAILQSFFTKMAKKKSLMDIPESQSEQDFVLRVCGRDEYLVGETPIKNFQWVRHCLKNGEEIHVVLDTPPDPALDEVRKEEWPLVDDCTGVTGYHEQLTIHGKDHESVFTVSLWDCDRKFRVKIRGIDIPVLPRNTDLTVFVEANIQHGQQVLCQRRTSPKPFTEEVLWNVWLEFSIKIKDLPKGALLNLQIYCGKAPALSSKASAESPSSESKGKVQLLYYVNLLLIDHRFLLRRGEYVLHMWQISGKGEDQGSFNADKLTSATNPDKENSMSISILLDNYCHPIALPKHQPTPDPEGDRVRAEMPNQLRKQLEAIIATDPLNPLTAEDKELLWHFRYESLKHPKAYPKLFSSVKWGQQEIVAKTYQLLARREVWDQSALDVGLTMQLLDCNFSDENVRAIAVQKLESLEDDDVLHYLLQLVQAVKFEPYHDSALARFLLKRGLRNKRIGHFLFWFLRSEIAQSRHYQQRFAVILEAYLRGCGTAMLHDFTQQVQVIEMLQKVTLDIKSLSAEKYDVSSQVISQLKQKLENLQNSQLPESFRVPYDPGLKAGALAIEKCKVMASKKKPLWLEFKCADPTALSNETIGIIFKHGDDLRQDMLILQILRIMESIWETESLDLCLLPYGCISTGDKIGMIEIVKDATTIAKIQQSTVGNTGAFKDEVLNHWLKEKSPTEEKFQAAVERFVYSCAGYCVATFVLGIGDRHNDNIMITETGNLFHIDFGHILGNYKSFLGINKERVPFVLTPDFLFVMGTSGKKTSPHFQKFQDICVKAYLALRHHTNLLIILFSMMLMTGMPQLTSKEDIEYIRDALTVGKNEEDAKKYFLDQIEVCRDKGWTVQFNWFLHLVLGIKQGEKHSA
PI3Kα (p110α/p85α), sequence (P42336 whole entry): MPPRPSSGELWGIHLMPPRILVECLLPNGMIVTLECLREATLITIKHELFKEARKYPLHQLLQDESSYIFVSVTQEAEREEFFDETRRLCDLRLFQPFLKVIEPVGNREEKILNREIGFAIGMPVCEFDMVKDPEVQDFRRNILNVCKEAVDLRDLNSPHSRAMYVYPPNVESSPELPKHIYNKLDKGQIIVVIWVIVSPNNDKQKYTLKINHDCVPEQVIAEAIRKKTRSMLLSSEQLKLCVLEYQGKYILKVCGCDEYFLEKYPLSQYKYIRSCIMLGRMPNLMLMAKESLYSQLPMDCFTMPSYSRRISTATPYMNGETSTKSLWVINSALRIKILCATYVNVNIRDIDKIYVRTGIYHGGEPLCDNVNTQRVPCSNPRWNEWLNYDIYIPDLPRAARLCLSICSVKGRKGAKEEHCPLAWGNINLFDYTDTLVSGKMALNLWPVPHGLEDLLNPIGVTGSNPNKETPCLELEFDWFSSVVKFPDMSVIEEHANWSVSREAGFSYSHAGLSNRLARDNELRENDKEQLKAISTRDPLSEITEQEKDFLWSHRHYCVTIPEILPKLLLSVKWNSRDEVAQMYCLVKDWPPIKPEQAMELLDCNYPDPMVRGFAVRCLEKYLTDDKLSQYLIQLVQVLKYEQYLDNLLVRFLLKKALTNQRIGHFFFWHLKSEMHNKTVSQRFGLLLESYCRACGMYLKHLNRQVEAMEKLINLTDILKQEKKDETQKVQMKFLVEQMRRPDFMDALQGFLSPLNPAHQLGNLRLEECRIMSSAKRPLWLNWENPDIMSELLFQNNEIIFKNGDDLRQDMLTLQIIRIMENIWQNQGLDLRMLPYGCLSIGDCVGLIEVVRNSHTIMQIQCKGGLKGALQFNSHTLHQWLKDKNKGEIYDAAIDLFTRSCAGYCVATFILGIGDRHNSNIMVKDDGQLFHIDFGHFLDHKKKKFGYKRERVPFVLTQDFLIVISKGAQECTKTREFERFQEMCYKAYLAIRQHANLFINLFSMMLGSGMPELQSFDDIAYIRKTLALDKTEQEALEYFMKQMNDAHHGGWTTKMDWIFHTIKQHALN
PI3Kα (p110α/p85α), sequence (P27986 whole entry partner): as the sequence (P27986 whole entry partner) above
PI3Kβ (p110β/p85α), sequence (P42338 whole entry): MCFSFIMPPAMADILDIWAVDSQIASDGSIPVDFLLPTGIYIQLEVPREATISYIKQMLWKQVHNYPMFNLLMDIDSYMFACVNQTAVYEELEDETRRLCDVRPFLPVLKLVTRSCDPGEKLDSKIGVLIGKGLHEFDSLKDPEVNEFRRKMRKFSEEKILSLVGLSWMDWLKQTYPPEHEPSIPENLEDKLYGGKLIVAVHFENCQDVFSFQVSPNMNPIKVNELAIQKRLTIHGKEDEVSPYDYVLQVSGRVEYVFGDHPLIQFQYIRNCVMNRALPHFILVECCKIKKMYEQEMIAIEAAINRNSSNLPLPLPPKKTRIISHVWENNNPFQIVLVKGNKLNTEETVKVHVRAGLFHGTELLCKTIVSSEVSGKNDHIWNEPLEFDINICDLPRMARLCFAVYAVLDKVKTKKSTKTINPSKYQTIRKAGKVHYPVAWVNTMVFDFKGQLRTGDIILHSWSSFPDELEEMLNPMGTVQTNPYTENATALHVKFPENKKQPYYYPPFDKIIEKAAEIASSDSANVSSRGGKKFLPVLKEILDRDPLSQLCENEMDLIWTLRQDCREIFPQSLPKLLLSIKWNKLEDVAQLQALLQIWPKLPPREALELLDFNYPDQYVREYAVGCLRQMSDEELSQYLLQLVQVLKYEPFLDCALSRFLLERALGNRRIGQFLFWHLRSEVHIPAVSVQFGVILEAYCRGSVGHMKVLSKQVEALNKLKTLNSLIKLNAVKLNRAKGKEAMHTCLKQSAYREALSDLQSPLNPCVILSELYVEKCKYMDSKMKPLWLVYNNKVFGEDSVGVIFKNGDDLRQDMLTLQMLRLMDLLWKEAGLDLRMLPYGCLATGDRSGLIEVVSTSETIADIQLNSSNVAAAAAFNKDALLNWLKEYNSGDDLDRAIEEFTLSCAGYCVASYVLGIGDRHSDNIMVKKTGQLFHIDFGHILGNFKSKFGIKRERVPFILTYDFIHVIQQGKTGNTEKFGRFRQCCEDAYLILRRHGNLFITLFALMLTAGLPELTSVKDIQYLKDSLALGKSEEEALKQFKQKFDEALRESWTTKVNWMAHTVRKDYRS
PI3Kβ (p110β/p85α), sequence (P27986 whole entry partner): as the sequence (P27986 whole entry partner) above

Ratio (γ/δ) (PI3Kγ (p110γ))	Ratio (α/δ) (PI3Kα (p110α/p85α))	Ratio (β/δ) (PI3Kβ (p110β/p85α))	IC50 (PI3Kδ (p110δ/p85α)) [pM]	SMILES
24	493	250	1800	Clc1cccc2cc([C@@H]3CCCN3c3ncnc4[nH]cnc34)c(N3CCOCC3)nc12 [Compound 66]
>5.6	>8583	1368	< 50	N#Cc1c(N)ncnc1N1CCC[C@H]1c1cc2cccc(Cl)c2nc1-c1ccccc1 [Compound 67]
~10	>545	>106	< 50	N#Cc1c(N)nc(N)nc1N1CCC[C@H]1c1cc2cccc(Cl)c2nc1-c1ccccc1 [Compound 68]
>31	>4154	>111	< 50	N#Cc1c(N)ncnc1N1CCC[C@H]1c1cc2cccc(Cl)c2nc1N1CCOCC1 [Compound 69]
